Read-outs that look alike come from different tables or passages of the source.
How the values were obtained:
Assay in all cases: Kinase panel
[1] = test system: CK1(y); assay type: biochemical, yeast
[2] = target: T1, CDK6/cyclinD3(h) (Homo sapiens, UniProt Q00534); assay type: biochemical
T1 construct: purchased Millipore KinaseProfiler

[3] = target: T2, JNK2α2(h) (Homo sapiens, UniProt P45984); assay type: biochemical
T2 construct: purchased Millipore KinaseProfiler

[4] = target: T3, CaMKIIβ(h) (Homo sapiens, UniProt Q13554); assay type: biochemical
T3 construct: purchased Millipore KinaseProfiler
T3 sequence (Q13554 whole entry): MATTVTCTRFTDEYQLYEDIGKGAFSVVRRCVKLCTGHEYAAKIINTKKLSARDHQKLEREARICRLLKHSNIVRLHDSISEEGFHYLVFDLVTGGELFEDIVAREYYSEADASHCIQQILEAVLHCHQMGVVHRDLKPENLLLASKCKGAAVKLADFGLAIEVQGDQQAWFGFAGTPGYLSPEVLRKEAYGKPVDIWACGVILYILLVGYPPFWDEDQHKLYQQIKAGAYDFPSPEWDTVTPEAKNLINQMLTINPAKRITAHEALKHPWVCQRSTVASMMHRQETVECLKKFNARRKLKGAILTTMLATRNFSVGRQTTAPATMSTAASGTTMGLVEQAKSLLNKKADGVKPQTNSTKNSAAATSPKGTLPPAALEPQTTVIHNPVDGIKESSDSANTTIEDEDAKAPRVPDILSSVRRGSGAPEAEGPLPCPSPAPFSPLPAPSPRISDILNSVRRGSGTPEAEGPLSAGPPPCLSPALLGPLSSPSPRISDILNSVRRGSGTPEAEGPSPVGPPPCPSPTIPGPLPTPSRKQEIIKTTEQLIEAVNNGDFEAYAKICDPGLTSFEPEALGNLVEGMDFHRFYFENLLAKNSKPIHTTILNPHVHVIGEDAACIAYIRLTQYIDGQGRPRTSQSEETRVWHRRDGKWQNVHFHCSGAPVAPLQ

[5] = target: T4, PKG1α(h) (Homo sapiens, UniProt Q13976); assay type: biochemical
T4 construct: purchased Millipore KinaseProfiler
T4 sequence (Q13976 1-671): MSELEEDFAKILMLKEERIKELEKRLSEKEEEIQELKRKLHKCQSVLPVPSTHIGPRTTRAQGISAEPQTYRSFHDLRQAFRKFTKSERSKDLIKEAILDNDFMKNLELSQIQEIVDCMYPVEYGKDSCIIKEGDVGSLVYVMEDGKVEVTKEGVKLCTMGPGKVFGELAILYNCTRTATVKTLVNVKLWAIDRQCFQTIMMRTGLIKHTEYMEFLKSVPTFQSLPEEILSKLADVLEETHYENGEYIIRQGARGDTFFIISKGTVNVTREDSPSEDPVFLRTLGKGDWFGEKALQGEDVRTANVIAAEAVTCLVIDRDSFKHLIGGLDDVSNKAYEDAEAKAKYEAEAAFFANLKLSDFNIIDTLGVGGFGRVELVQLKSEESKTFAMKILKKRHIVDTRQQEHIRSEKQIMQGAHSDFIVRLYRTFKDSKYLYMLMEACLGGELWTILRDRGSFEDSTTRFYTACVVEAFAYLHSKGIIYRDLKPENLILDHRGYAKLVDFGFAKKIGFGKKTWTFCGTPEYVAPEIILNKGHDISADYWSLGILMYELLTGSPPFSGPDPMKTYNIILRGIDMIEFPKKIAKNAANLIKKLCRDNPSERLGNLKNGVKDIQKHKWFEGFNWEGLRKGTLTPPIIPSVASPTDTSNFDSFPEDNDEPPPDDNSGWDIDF

[6] = target: T5, MKK4(m) (Mus musculus, UniProt P47809); assay type: biochemical
T5 construct: purchased Millipore KinaseProfiler
T5 sequence (P47809 2-397 limits assumed): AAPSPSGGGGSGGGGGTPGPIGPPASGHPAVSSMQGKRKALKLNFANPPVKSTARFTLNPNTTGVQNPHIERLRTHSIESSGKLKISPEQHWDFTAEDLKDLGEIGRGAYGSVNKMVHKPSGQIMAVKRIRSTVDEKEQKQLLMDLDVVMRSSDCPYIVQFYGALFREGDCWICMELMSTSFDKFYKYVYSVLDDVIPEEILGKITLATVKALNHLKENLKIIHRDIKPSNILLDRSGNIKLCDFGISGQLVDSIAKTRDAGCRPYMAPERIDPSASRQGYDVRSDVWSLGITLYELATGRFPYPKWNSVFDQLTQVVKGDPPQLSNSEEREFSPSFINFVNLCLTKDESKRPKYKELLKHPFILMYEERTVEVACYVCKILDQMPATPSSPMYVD

[7] = target: T6, NEK3(h) (Homo sapiens, UniProt P51956); assay type: biochemical
T6 construct: purchased Millipore KinaseProfiler
T6 sequence (P51956 1-506): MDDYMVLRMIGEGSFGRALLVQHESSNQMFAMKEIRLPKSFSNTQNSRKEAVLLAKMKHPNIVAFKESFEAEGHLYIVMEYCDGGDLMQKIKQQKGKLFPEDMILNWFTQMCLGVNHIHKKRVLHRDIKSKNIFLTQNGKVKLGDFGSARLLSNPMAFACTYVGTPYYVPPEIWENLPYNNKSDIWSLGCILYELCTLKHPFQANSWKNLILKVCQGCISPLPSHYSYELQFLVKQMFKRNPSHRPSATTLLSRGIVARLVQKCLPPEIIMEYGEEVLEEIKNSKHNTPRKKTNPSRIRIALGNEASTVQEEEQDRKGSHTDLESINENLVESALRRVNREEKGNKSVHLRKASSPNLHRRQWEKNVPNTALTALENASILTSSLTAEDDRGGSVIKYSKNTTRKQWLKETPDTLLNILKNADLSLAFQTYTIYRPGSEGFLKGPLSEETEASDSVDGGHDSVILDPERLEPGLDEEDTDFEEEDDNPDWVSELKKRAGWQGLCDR

[8] = target: T7, Mnk2(h) (Homo sapiens, UniProt Q9HBH9); assay type: biochemical
T7 construct: purchased Millipore KinaseProfiler
T7 sequence (Q9HBH9 whole entry): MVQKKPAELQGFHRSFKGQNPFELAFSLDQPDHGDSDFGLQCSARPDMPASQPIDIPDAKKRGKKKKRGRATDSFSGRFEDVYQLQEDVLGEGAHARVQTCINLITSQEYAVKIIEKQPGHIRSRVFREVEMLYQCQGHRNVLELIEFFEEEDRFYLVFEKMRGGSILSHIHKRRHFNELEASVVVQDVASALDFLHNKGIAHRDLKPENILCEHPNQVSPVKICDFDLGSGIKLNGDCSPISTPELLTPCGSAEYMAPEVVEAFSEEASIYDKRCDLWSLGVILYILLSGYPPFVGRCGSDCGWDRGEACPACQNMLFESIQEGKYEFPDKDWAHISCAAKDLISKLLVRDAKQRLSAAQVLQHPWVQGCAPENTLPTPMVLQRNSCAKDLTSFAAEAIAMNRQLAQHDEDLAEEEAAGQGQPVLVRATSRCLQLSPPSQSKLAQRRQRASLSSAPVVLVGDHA

[9] = target: T8, STK33(h) (Homo sapiens, UniProt Q9BYT3); assay type: biochemical
T8 construct: purchased Millipore KinaseProfiler
T8 sequence (Q9BYT3 whole entry): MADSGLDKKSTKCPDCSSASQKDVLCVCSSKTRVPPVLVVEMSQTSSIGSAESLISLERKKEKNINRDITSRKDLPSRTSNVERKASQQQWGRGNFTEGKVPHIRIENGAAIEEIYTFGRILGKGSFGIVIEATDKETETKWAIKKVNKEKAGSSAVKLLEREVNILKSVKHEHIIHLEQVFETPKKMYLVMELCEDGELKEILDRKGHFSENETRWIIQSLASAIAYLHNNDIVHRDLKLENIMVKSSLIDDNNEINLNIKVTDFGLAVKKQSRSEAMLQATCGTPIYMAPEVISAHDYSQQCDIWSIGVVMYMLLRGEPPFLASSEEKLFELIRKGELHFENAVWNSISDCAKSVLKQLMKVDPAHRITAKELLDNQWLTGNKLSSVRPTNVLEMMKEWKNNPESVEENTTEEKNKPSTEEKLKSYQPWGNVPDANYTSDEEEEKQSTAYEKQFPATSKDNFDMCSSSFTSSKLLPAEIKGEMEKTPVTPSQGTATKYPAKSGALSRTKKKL

[10] = target: T9, CDK7/cyclinH/MAT1(h) (Homo sapiens, UniProt P50613); assay type: biochemical
T9 construct: purchased Millipore KinaseProfiler
T9 sequence (P50613 whole entry): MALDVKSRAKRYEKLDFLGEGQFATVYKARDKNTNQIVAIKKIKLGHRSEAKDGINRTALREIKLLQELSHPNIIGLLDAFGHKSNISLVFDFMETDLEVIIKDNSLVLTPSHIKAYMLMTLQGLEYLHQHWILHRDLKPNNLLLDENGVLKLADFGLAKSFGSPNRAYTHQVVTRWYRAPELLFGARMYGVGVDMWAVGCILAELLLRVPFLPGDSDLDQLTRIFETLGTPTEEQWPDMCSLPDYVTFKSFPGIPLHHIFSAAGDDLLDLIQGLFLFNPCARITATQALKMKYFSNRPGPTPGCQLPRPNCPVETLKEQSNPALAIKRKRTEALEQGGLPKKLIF
T9 sequence (P51946 whole entry partner): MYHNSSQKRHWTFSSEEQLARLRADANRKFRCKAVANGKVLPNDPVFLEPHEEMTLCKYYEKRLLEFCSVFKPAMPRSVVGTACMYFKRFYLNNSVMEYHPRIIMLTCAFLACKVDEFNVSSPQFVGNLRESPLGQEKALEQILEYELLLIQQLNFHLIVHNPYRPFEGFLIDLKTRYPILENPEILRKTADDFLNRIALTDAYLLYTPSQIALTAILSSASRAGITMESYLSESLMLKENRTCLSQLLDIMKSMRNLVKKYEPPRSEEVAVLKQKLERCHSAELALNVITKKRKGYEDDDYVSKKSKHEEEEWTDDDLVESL
T9 sequence (P51948 whole entry partner): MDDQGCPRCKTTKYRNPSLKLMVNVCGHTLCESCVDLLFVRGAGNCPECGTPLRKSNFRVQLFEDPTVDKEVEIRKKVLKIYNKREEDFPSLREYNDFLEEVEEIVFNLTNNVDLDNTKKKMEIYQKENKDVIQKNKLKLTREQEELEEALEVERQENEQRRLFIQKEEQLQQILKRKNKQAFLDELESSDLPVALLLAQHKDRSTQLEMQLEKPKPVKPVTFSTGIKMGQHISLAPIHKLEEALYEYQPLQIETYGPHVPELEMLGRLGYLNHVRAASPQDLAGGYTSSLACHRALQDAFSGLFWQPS

T1 sequence (Q00534 whole entry): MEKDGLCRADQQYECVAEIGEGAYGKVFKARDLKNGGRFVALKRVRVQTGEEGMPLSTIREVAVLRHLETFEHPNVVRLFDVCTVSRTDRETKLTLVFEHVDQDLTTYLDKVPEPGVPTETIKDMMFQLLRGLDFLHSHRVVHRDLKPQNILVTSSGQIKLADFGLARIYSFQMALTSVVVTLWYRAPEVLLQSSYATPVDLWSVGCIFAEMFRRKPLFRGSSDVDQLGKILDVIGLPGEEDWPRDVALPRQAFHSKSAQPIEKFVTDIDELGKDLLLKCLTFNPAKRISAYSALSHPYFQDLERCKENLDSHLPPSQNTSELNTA
T1 sequence (P30281 whole entry partner): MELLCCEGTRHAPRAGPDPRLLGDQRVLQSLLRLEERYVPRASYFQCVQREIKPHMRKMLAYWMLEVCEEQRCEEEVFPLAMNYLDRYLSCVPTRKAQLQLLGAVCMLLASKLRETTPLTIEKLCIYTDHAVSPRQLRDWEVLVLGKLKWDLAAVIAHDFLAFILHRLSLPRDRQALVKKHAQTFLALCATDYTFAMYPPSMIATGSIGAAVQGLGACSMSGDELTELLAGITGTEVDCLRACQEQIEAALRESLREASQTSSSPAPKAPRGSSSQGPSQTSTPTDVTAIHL
T2 sequence (P45984 whole entry): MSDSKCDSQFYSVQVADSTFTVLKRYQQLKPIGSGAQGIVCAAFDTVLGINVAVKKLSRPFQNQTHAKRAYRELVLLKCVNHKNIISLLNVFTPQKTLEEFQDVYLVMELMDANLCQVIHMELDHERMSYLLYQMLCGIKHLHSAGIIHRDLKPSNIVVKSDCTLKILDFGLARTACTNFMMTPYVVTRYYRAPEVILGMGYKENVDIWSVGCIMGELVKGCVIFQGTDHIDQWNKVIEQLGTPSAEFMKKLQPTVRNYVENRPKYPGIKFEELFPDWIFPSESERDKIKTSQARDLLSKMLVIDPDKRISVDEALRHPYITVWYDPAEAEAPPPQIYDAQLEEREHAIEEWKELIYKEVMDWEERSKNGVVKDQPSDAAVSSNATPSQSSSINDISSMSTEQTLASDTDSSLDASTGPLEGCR

Cn1ncc(Cl)c1-c1cc(C(=O)N[C@H](CN)Cc2cccc(F)c2)sc1Cl [GSK2110183]
% Inhibition ([1]; 0.5 µM): 3% | % Inhibition ([1]; 10 µM): 54% | inhibition at 0.5 µM [2]: 0% | inhibition at 10 µM [2]: 5% | inhibition at 0.5 µM [3]: -15% | inhibition at 10 µM [3]: -13% | inhibition at 0.5 µM [4]: 5% | inhibition at 10 µM [4]: 61% | inhibition at 0.5 µM [5]: 99% | inhibition at 10 µM [5]: 99% | inhibition at 0.5 µM [6]: 25% | inhibition at 10 µM [6]: 57% | inhibition at 0.5 µM [7]: -14% | inhibition at 10 µM [7]: -10% | inhibition at 0.5 µM [8]: 22% | inhibition at 10 µM [8]: 84% | inhibition at 0.5 µM [9]: 56% | inhibition at 10 µM [9]: 94% | inhibition at 0.5 µM [10]: 62% | inhibition at 10 µM [10]: 96%

Cn1ncc(Cl)c1-c1cc(C(=O)N[C@H](CN)Cc2ccc(F)c(F)c2)oc1Cl [GSK2141795]
% Inhibition ([1]; 0.5 µM): 35% | % Inhibition ([1]; 10 µM): 93% | inhibition at 0.5 µM ([2]; 0.5 µM, read-out: % Inhibition): -12% | inhibition at 10 µM ([2]; 10 µM, read-out: % Inhibition): -12% | inhibition at 0.5 µM ([3]; 0.5 µM, read-out: % Inhibition): -15% | inhibition at 10 µM ([3]; 10 µM, read-out: % Inhibition): -23% | inhibition at 0.5 µM ([4]; 0.5 µM, read-out: % Inhibition): 15% | inhibition at 10 µM ([4]; 10 µM, read-out: % Inhibition): 75% | inhibition at 0.5 µM ([5]; 0.5 µM, read-out: % Inhibition): 100% | inhibition at 10 µM ([5]; 10 µM, read-out: % Inhibition): 99% | inhibition at 0.5 µM ([6]; 0.5 µM, read-out: % Inhibition): 8% | inhibition at 10 µM ([6]; 10 µM, read-out: % Inhibition): 36% | inhibition at 0.5 µM ([7]; 0.5 µM, read-out: % Inhibition): 6% | inhibition at 10 µM ([7]; 10 µM, read-out: % Inhibition): 12% | inhibition at 0.5 µM ([8]; 0.5 µM, read-out: % Inhibition): 9% | inhibition at 10 µM ([8]; 10 µM, read-out: % Inhibition): 80% | inhibition at 0.5 µM ([9]; 0.5 µM, read-out: % Inhibition): 82% | inhibition at 10 µM ([9]; 10 µM, read-out: % Inhibition): 77% | inhibition at 0.5 µM ([10]; 0.5 µM, read-out: % Inhibition): 64% | inhibition at 10 µM ([10]; 10 µM, read-out: % Inhibition): 101%

— publication PMC4076210, “Discovery of Novel AKT Inhibitors with Enhanced Anti-Tumor Effects in Combination with the MEK Inhibitor” (PLoS ONE, 2014)
